Measurements reported in DBAASP.
≈ marks a conversion by molar mass, not a printed value.

Experiments:
Assay in all cases: ≥ marks a high value that may be exact or a test limit, other limits are often not marked, values filed in µg/mL are converted to µM
[1] = system: Pseudomonas aeruginosa PAO1
[2] = system: Streptococcus pyogenes M1T1 5448
Escherichia coli BL21 = system: Escherichia coli BL21
[3] = system: Pseudomonas aeruginosa ATCC 27853
Staphylococcus aureus MR = system: Staphylococcus aureus MR
[4] = system: Staphylococcus aureus ATCC 49476
Candida albicans = system: Candida albicans
[5] = system: Pseudomonas aeruginosa Ps4
[6] = system: Acinetobacter baumannii ATCC BAA-747
[7] = system: Escherichia coli ATCC 25922
[8] = system: Klebsiella pneumoniae ATCC 700603
[9] = system: Staphylococcus aureus ATCC 43300
[10] = system: Enterococcus faecium ATCC 700221
[11] = system: Salmonella enterica ATCC 6539
Candida albicans CA1 = system: Candida albicans CA1
[12] = system: Acinetobacter baumannii AB1
[13] = system: Candida tropicalis ATCC 750
[14] = system: Klebsiella pneumoniae KP1
[15] = system: Pseudomonas aeruginosa PA14
Escherichia coli EC16 = system: Escherichia coli EC16
[16] = system: Candida albicans ATCC 90029
Escherichia coli EC18 = system: Escherichia coli EC18
[17] = system: Candida krusei ATCC 40147
[18] = system: Candida parapsilosis ATCC 90018
[19] = system: Acinetobacter baumannii ATCC 7978
[20] = system: Staphylococcus aureus ATCC 29231
[21] = system: Candida albicans ATCC 10231
[22] = system: Staphylococcus aureus MW2
[23] = system: Klebsiella pneumoniae WGLW2
[24] = system: Cryptococcus neoformans ATCC 32264
[25] = system: Listeria ivanovii ATCC 19119
[26] = system: Salmonella enterica subsp. enterica serovar Typhimurium ATCC 14028
[27] = system: Candida albicans CGMCC 2.2411
[28] = system: Salmonella enterica subsp. enterica serovar Pullorum CVCC 1809
[29] = system: Salmonella enterica subsp. enterica serovar Pullorum CVCC 533
[30] = system: Enterococcus faecalis CVCC 3936
[31] = system: Pseudomonas aeruginosa CICC 10419
[32] = system: Escherichia coli CVCC 1515
[33] = system: Bacillus subtilis ATCC 6633
[34] = system: Streptococcus suis CVCC 606
[35] = system: Escherichia coli CVCC 195

## CC[C@H](C)[C@H](NC(=O)[C@H](Cc1c[nH]c2ccccc12)NC(=O)[C@H](C)NC(=O)[C@H](CCCN=C(N)N)NC(=O)[C@H](CCCCN)NC(=O)CNC(=O)[C@H](CCCCN)NC(=O)[C@H](CCC(=O)O)NC(=O)[C@H](CCC(N)=O)NC(=O)[C@@H](NC(=O)[C@H](CCCCN)NC(=O)[C@H](CCCCN)NC(=O)[C@H](CCCCN)NC(=O)[C@H](CC(C)C)NC(=O)[C@H](CCCN=C(N)N)NC(=O)[C@H](CCC(N)=O)NC(=O)[C@H](Cc1ccccc1)NC(=O)[C@@H](NC(=O)[C@@H](NC(=O)[C@H](CCC(=O)O)NC(=O)[C@H](CCCCN)NC(=O)CNC(=O)[C@H](C)N)[C@@H](C)O)[C@@H](C)CC)[C@@H](C)CC)C(=O)N[C@@H](C)C(=O)N[C@@H](Cc1c[nH]c2ccccc12)C(=O)O [AGKETIFQRLKKKIQEKGKRAWIAW]
[1]
  MIC: 32 µM (≈ 96.5 µg/mL)
[2]
  MIC: 0.125 µM (≈ 0.377 µg/mL)
Escherichia coli BL21
  MIC: 0.0156 µM (≈ 0.047 µg/mL)

## CC[C@H](C)[C@H](NC(=O)[C@H](CO)NC(=O)[C@H](Cc1ccccc1)NC(=O)[C@H](CC(C)C)NC(=O)CNC(=O)CNC(=O)[C@@H](NC(=O)[C@@H](NC(=O)[C@H](Cc1cnc[nH]1)NC(=O)[C@H](Cc1cnc[nH]1)NC(=O)[C@@H](NC(=O)[C@@H](N)Cc1ccccc1)[C@@H](C)CC)[C@@H](C)CC)[C@@H](C)CC)C(=O)NCC(=O)N[C@@H](CCCCN)C(=O)N[C@H](C(=O)N[C@H](C(=O)N[C@@H](Cc1cnc[nH]1)C(=O)N[C@@H](CCCN=C(N)N)C(=O)N[C@@H](CC(C)C)C(=O)N[C@H](C(=O)N[C@@H](CCCN=C(N)N)C(=O)N[C@@H](CCCN=C(N)N)C(=O)N[C@@H](CCCN=C(N)N)C(=O)N[C@@H](CCCN=C(N)N)C(=O)N[C@@H](CCCN=C(N)N)C(=O)O)[C@@H](C)CC)[C@@H](C)CC)[C@@H](C)CC [FIHHIIGGLFSIGKIIHRLIRRRRR]
[3]
  MIC: 167 µM (≈ 512 µg/mL)
Staphylococcus aureus MR
  MIC: 20.9 µM (≈ 64 µg/mL)
[4]
  MIC: 5.22 µM (≈ 16 µg/mL)
Candida albicans
  MIC: 41.8 µM (≈ 128 µg/mL)

## CC[C@H](C)[C@H](NC(=O)[C@H](CC(N)=O)NC(=O)[C@H](CCCN=C(N)N)NC(=O)[C@H](CCC(N)=O)NC(=O)[C@H](Cc1c[nH]c2ccccc12)NC(=O)[C@@H](N)Cc1ccccc1)C(=O)N[C@@H](CCCN=C(N)N)C(=O)N[C@@H](CCCCN)C(=O)N[C@H](C(=O)N[C@@H](CCCN=C(N)N)C(N)=O)C(C)C [FWQRNIRKVR]
[5]
  MIC: ≥ 178 µM

## NCCCC[C@H](NC(=O)CNC(=O)CNC(=O)[C@H](CCCN=C(N)N)NC(=O)[C@H](CS)NC(=O)[C@H](Cc1ccc(O)cc1)NC(=O)[C@H](Cc1c[nH]c2ccccc12)NC(=O)[C@H](CCCN=C(N)N)NC(=O)[C@H](Cc1c[nH]c2ccccc12)NC(=O)[C@H](Cc1cnc[nH]1)NC(=O)CNC(=O)CN)C(N)=O [GGHWRWYCRGGK]
[6]
  MIC: 11 µM (≈ 16.1 µg/mL)
[3]
  MIC: 11 µM (≈ 16.1 µg/mL)
[7]
  MIC: 3 µM (≈ 4.39 µg/mL)
[8]
  MIC: 11 µM (≈ 16.1 µg/mL)
[9]
  MIC: 11 µM (≈ 16.1 µg/mL)
[10]
  MIC: 3 µM (≈ 4.39 µg/mL)
[11]
  MIC: 1 µM (≈ 1.46 µg/mL)

## CC[C@H](C)[C@H](NC(=O)CNC(=O)[C@H](C)NC(=O)[C@H](CCCCN)NC(=O)CNC(=O)[C@H](CCSC)NC(=O)[C@H](CCC(=O)O)NC(=O)[C@H](CCCCN)NC(=O)[C@@H](NC(=O)[C@@H](NC(=O)[C@H](CCCCN)NC(=O)[C@@H](NC(=O)[C@@H](NC(=O)[C@H](CCCCN)NC(=O)[C@H](CC(=O)O)NC(=O)[C@H](CCCCN)NC(=O)[C@H](Cc1cnc[nH]1)NC(=O)[C@H](CCCCN)NC(=O)[C@H](CC(N)=O)NC(=O)[C@H](Cc1c[nH]c2ccccc12)NC(=O)[C@H](Cc1c[nH]c2ccccc12)NC(=O)[C@H](CC(=O)O)NC(=O)[C@H](CCCCN)NC(=O)[C@H](CC(C)C)NC(=O)CN)[C@@H](C)CC)C(C)C)C(C)C)C(C)C)C(=O)N[C@@H](CC(N)=O)C(=O)N[C@@H](C)C(=O)N[C@@H](C)C(N)=O [GLKDWWNKHKDKIVKVVKEMGKAGINAA]
Candida albicans CA1
  MIC: 5 µM (≈ 15.8 µg/mL)
[12]
  MIC: 10 µM (≈ 31.6 µg/mL)
[13]
  MIC: 10 µM (≈ 31.6 µg/mL)
[14]
  MIC: 5 µM (≈ 15.8 µg/mL)
[15]
  MIC: 5 µM (≈ 15.8 µg/mL)
Escherichia coli EC16
  MIC: 5 µM (≈ 15.8 µg/mL)
[16]
  MIC: 10 µM (≈ 31.6 µg/mL)
Escherichia coli EC18
  MIC: 10 µM (≈ 31.6 µg/mL)
[17]
  MIC: 2.5 µM (≈ 7.91 µg/mL)
[18]
  MIC: 10 µM (≈ 31.6 µg/mL)

## CC[C@H](C)[C@H](NC(=O)[C@H](Cc1c[nH]c2ccccc12)NC(=O)[C@H](CCCCN)NC(=O)[C@@H](N)CC(C)C)C(=O)NCC(=O)N[C@@H](CCCCN)C(=O)N[C@@H](CCCCN)C(=O)N[C@H](C(=O)N[C@@H](Cc1c[nH]c2ccccc12)C(=O)N[C@@H](CCCN=C(N)N)C(=O)N[C@H](C(=O)NCC(=O)N[C@@H](Cc1c[nH]c2ccccc12)C(=O)N[C@@H](CC(N)=O)C(=O)N[C@@H](Cc1c[nH]c2ccccc12)C(=O)N[C@@H](CCCN=C(N)N)C(=O)O)C(C)C)[C@@H](C)CC [LKWIGKKIWRVGWNWR]
[19]
  MIC: 15.1 µM (≈ 32 µg/mL)
[20]
  MIC: ≥ 60.2 µM
[21]
  MIC: 60.2 µM (≈ 128 µg/mL)
[22]
  MIC: 30.1 µM (≈ 64 µg/mL)
[23]
  MIC: ≥ 60.2 µM

## NCCCC[C@H](NC(=O)[C@H](CCCCN)NC(=O)[C@H](Cc1c[nH]c2ccccc12)NC(=O)[C@H](CCCCN)NC(=O)[C@H](CCCN=C(N)N)NC(=O)[C@H](CCCN=C(N)N)NC(=O)[C@H](CCCCN)NC(=O)[C@@H](N)CCCN=C(N)N)C(N)=O [RKRRKWKK]
[24]
  MIC: ≥ 200 µM

## CC(C)[C@H](NC(=O)[C@H](CCCCN)NC(=O)[C@H](Cc1c[nH]c2ccccc12)NC(=O)[C@H](CCCN=C(N)N)NC(=O)CNC(=O)[C@H](CCC(N)=O)NC(=O)[C@@H](NC(=O)[C@@H](N)CCCN=C(N)N)C(C)C)C(=O)N[C@@H](CCCN=C(N)N)C(=O)N[C@@H](C)C(=O)N[C@@H](CO)C(=O)N[C@@H](Cc1ccccc1)C(=O)N[C@@H](Cc1ccccc1)C(=O)N[C@@H](CCCCN)C(=O)O [RVQGRWKVRASFFK]
[25]
  MIC: 4.53 µM (≈ 8 µg/mL)
[26]
  MIC: 9.06 µM (≈ 16 µg/mL)
[27]
  MIC: ≥ 36.3 µM
[28]
  MIC: 9.06 µM (≈ 16 µg/mL)
[29]
  MIC: 18.1 µM (≈ 32 µg/mL)
[30]
  MIC: 18.1 µM (≈ 32 µg/mL)
[9]
  MIC: 36.3 µM (≈ 64 µg/mL)
[31]
  MIC: ≥ 36.3 µM
[32]
  MIC: 4.53 µM (≈ 8 µg/mL)
[33]
  MIC: 18.1 µM (≈ 32 µg/mL)
[34]
  MIC: ≥ 36.3 µM
[35]
  MIC: 4.53 µM (≈ 8 µg/mL)
